Data set [1] concerns Bovine viral diarrhea virus 1. As to the kind of experiment: Antiviral activity against Bovine viral diarrhea virus 1 infected bovine MDBK cells assessed as protection against virus-induced cytopathogenicity treated 1 hr after viral infection measured after 3-4 days by MTT method. In kind it is functional, organism-based. To be noted: Bovine viral diarrhea virus isolates and strains. A general note: Cytopathic effects are the visible damage that an infection or toxin causes in cultured cells.

The test system of data set [2] is Poliovirus 1. The data set can be described thus: Antiviral activity against Human poliovirus 1 strain Sabin infected African green monkey Vero 76 cells assessed as reduction in plaque number treated after viral infection measured after 2 days by plaque reduction assay. It is filed as functional, organism-based. To be noted: Enterovirus C, 48 h. Background: Plaque reduction counts the foci of infection that form in a cell layer.

A short description of data set [3]: Cytotoxicity against Chlorocebus aethiops (African green monkey) Vero 76 cells assessed as inhibition of cell viability after 48 to 120 hr by MTT assay. It is filed as cell-based. Particulars: chlorocebus sabaeus. (Tetrazolium dyes change colour on reduction, which living cells bring about.)
Data set [4] concerns Coxsackievirus B2. The data set can be described thus: Antiviral activity against Human coxsackievirus B2 infected in African green monkey Vero 76 cells assessed as reduction in plaque number treated after viral infection measured after 3 days by plaque reduction assay. To be noted: Enterovirus B, 72 h. It is filed as functional, organism-based.
Data set [5] concerns Vesicular stomatitis virus. The data set can be described thus: Antiviral activity against Vesicular stomatitis virus infected African green monkey Vero 76 cells assessed as reduction in plaque number treated after viral infection measured after 2 days by plaque reduction assay. In kind it is functional, organism-based. To be noted: 48 h.
The test system of data set [6] is Vaccinia virus. As to the kind of experiment: Antiviral activity against Vaccinia virus infected African green monkey Vero 76 cells assessed as reduction in plaque number treated after viral infection measured after 3 days by plaque reduction assay. It is filed as functional, organism-based. Particulars: Orthopoxvirus vaccinia, 72 h.
For data set [7], the system named is Yellow fever virus. As to the kind of experiment: Antiviral activity against Yellow fever virus infected Syrian hamster BHK-21 cells assessed as protection against virus-induced cytopathogenicity treated 1 hr after viral infection measured after 3-4 days by MTT method. It is filed as functional, organism-based.
In data set [8] the test system is Respiratory syncytial virus. The data set can be described thus: Antiviral activity against Respiratory syncytial virus infected African green monkey Vero 76 cells assessed as reduction in plaque number treated after viral infection measured after 5 days by plaque reduction assay. Particulars: human respiratory syncytial virus, 120 h. In kind it is functional, organism-based.

For data set [9], the system named is Human immunodeficiency virus 1. As to the kind of experiment: Antiviral activity against Human immunodeficiency virus 1 infected human MT4 cells assessed as protection against virus-induced cytopathogenicity treated before viral infection measured after 4 days by MTT assay. In kind it is functional, organism-based. To be noted: Human immunodeficiency virus 1, MT4, 96 h.

A short description of data set [10]: Cytotoxicity against Bos taurus (bovine) MDBK cells assessed as inhibition of cell viability after 48 to 120 hr by MTT assay. It is filed as cell-based. To be noted: cattle.
Data set [11] has as its system Mammalian orthoreovirus 1. As to the kind of experiment: Antiviral activity against Mammalian orthoreovirus 1 infected Syrian hamster BHK-21 cells assessed as protection against virus-induced cytopathogenicity treated 1 hr after viral infection measured after 3-4 days by MTT method. It is filed as functional, organism-based. Particulars: Mammalian orthoreovirus 1, BHK-21.

The nature of data set [12]: Cytotoxicity against Homo sapiens (human) MT4 cells assessed as inhibition of cell vaibility after 96 hr by MTT assay. It is filed as cell-based.
Data set [13] deals with Human alphaherpesvirus 1. As to the kind of experiment: Antiviral activity against Human herpesvirus 1 infected African green monkey Vero 76 cells assessed as reduction in plaque number treated after viral infection measured after 3 days by plaque reduction assay. It is filed as functional, organism-based. To be noted: Human alphaherpesvirus 1, Vero, 72 h.
Data set [14] in a line: Cytotoxicity against Mesocricetus auratus (Syrian golden hamster) BHK21cells assessed as inhibition of cell viability after 48 to 120 hr by MTT assay. In kind it is cell-based. Particulars: BHK-21 cells.
Data set [15] in a line: Selectivity index, ratio of CC50 for bovine MDBK cells to EC50 for BVDV infected in bovine MDBK cells.

The structures appear in SMILES notation. Where only a bound is given, the exact number is not on record here.

Turning to `COc1ccc(-c2nnc3nnc4c5ccccc5[nH]c4n23)cc1OC`, the EC50 in data set [1], in data set [2], in [4], in [5], in [6] and in [7] was more than 100 µM throughout. Besides, the concentration for a half-maximal effect (EC50) in data set [8] is more than 100 µM; in [9] it was more than 100 µM; in [11], 55 µM; in [13], more than 100 µM. The CC50 in data set [3], in data set [10] and in [14] was more than 100 µM in each case. In addition, the CC50 at 96 h in data set [12] is more than 100 µM.
On to `COc1ccc(-c2nnc3nnc4c5ccccc5[nH]c4n23)cc1`, for which the EC50 in [1], in data set [2], in [4], in [5], in data set [6] and in data set [7] was more than 100 µM in each case. The concentration for a half-maximal effect (EC50) in data set [8], in data set [9], in [11] and in data set [13] was more than 100 µM each time. The CC50 in data set [3], in data set [10] and in [14] was more than 100 µM in each case. In addition, the CC50 at 96 h in [12] was more than 100 µM.
Turning to `CSc1ccc(-c2nnc3nnc4c5ccccc5[nH]c4n23)cc1`, the EC50 was more than 100 µM in data set [1]; more than 90 µM in data set [2]; more than 90 µM in data set [4]; more than 90 µM in data set [5]; more than 90 µM in data set [6]; more than 100 µM in data set [7]. The 50% effective concentration (EC50) was more than 90 µM in data set [8], more than 100 µM in data set [9], 45 µM in data set [11] and more than 90 µM in data set [13]. Moreover, the CC50 is 90 µM in [3], more than 100 µM in data set [10] and more than 100 µM in [14]. Also, the CC50 at 96 h in data set [12] was more than 100 µM.
`Brc1cccc(-c2nnc3nnc4c5ccccc5[nH]c4n23)c1`: the EC50 in [1], in data set [2], in data set [4], in data set [5], in [6] and in data set [7] was more than 100 µM in each case. Moreover, the EC50 in [8], in data set [9], in [11] and in [13] was more than 100 µM in each case. In addition, the CC50 in data set [3], in data set [10] and in data set [14] was more than 100 µM in each case. In [12], the CC50 at 96 h is more than 100 µM.
`Fc1ccc(-c2nnc3nnc4c5ccccc5[nH]c4n23)cc1`: the EC50 in [1], in data set [2], in data set [4], in data set [5], in data set [6] and in data set [7] was more than 100 µM in each case. For the same compound, the 50% effective concentration (EC50) in [8], in [9], in [11] and in data set [13] was more than 100 µM each time. Besides, the CC50 in [3], in data set [10] and in [14] was more than 100 µM throughout. For the same compound, in [12], the CC50 at 96 h is more than 100 µM.
Take `Clc1ccccc1-c1nnc2nnc3c4ccccc4[nH]c3n12`: the EC50 in data set [1], in data set [2], in [4], in data set [5], in data set [6] and in [7] was more than 100 µM in each case. Also, the concentration giving a half-maximal response (EC50) in [8], in data set [9], in data set [11] and in data set [13] was more than 100 µM each time. For the same compound, the CC50 in data set [3], in data set [10] and in data set [14] was more than 100 µM throughout. For the same compound, the CC50 at 96 h in data set [12] is more than 100 µM.
For the compound `Clc1cccc(-c2nnc3nnc4c5ccccc5[nH]c4n23)c1`, the EC50 in data set [1] was 69 µM; in data set [2], more than 60 µM; in data set [4], more than 60 µM; in data set [5], more than 60 µM; in data set [6], more than 60 µM; in data set [7], more than 55 µM. Also, the EC50 in data set [8] is more than 60 µM; in data set [9] it was more than 29 µM; in data set [11] it was more than 55 µM; in [13] it was more than 60 µM. In addition, the 50% cytotoxic concentration (CC50) in data set [3] was 60 µM; in data set [10], more than 100 µM; in data set [14], 55 µM. Also, the “Ratio CC50/EC50” value in [15] is given as more than 1.45. Moreover, the cytotoxic concentration (CC50) at 96 h in data set [12] turned out to be 29 µM.
Take `COc1cc(-c2nnc3nnc4c5ccccc5[nH]c4n23)ccc1O`: the concentration giving a half-maximal response (EC50) was 90 µM in data set [1]; more than 80 µM in data set [2]; more than 80 µM in [4]; more than 80 µM in [5]; more than 80 µM in [6]; more than 45 µM in data set [7]. Besides, the EC50 in data set [8] was more than 80 µM; in [9], more than 58 µM; in data set [11] it was 25 µM; in [13], more than 80 µM. For the same compound, the values for the CC50 in data set [3], in data set [10] and in [14] were 80 µM, more than 100 µM and 45 µM, respectively. The “Ratio CC50/EC50” value in [15] is on record as more than 1.11. Besides, the CC50 at 96 h in data set [12] worked out at 58 µM.
In the case of `c1ccc2c(-c3nnc4nnc5c6ccccc6[nH]c5n34)c3ccccc3cc2c1`, the EC50 in data set [1] is 3 µM; in [4], more than 100 µM; in data set [8], more than 100 µM; in data set [9], more than 56 µM; in data set [11], more than 100 µM; in data set [13], more than 100 µM. Also, the CC50 was not below 100 µM in data set [3], more than 100 µM in data set [10] and more than 100 µM in [14]. Besides, the “Ratio CC50/EC50” value in data set [15] is on record as more than 33.33. The CC50 at 96 h in data set [12] worked out at 56 µM.

One may read the EC50 as the concentration needed to bring the measured effect to its halfway point. One may read the CC50 as the concentration that lowers cell viability or growth by half.

These data come from ChEMBL document CHEMBL3046811, “Syntheses and in vitro biological screening of 1-aryl-10H-[1,2,4]triazolo[3,4:3,4][1,2,4]triazino[5,6-b]indoles” (Med Chem Res, 2013).
